Results: patent US20090298752A1, “APLIDINE TREATMENT OF CANCERS” (PHARMA MAR, S.A., priority 1999, published 2009)
“Also recorded” adds a separate entry of the source.

What was measured:
human bladder cancer = human bladder cancer animal models; assay type: in vivo; settings: complete remissions in some animal models
Source text: Bladder tumours are one type of tumour over-expressing the receptor to Epithelial Growth Factor (EGF), which leads to upregulation of VEGF and the VEGF receptor. Binding of VEGF to its receptor is believed to lead to cell growth stimulation by means of transitory local calcium ion changes among other mechanisms for signalling. A compound inhibiting VEGF action is expected to be inhibitory to such tumours.

Gastric MRI-H254 = test: sc hollow fibre (HF), gastric tumour cells, rat; assay type: in vivo; settings: 24 hr.iv inf., 0.7 mg/kg
Description: (§1) Different model systems were evaluated to provide the basis for further clinical work. Selective antitumour activities were seen against two histologically different solid tumours: human gastric and prostate carcinomas. Potent in vitro activity to primary gastric tumour specimens or Hs746T gastric tumour cells is evident with IC30 values of 146 and 450 pM, respectively. […] activities were evaluated in nude rodents using sc implanted tumour fragments or hollow fibres (HF) containing tumour cells.
(§2) Follow-up studies necessitated using rats for iv infusions. With this variation, a 24 hr iv infusion schedule produced similar activities against HF gastric (20%) and HF prostate (31%) tumour cells. Cytotoxicity was also found using a 5 day iv infusion schedule against HF prostate tumour cells (33%).

Prostate PC-3 = test: sc hollow fibre (HF), prostate tumour cells, rat; assay type: in vivo; settings: 0.70 mg/kg, 0.7 mg/kg
Description: as §1, §2

B-RAF = test: cDNA expression array in MOLT-4 cells; assay type: cell-based, human; settings: for quantitative change in B-RAF expression: MOLT-4, 1 h treatment
Description: (§3) The early changes in gene expression induced by aplidine in MOLT-4 cells were evaluated by using cDNA expression arrays (Atlas Human Cancer, Clontech). MOLT-4 cells were treated for 1 hour with concentrations of aplidine which inhibit the growth by 50% and total RNA was isolated at 0, 1, 6 and 24 hours after drug wash out. Filters were hybridised with equal amount of 32P labelled cDNA. Analysis of the results was carried out using ATLAS IMAGE 1.0 software. Changes in gene expression greater than 2 fold were taken as significant changes in RNA expression and subsequently confirmed by PCR.
as §3, with “In the present study we have evaluated the early” for “The early”, “cells” for “cells were evaluated”, “of aplidien” for “of aplidine”, “isolated t” for “isolated at”, “equal amounts” for “equal amount”, “PCR. […] Whether the down-regulation of flt-1 is involved in the cytotoxic and antitumour effect of aplidine is under investigation at the moment.” for “PCR.”
The human leukaemia cell line MOLT-4 was used for these experiments MOLT-4 cells were treated for 1 hour with 20 nM of aplidine. Total RNA was extracted at the end of treatment and 6 and 24 hours after recovery in drug-free medium.
5 μg of total RNA were retrotanscribed to cDNA in the presence of ^32P dATP. Equal amounts of radioactive probes were hybridised to Atlas Human Cancer Microarrays (Clontech). After washing, filter were exposed and the results analysed using the Atlas Image software. Only a gene expression difference greater than 2 fold between treated and untreated cells were taken into account. RT-PCR and northern analysis have been performed to confirm the changes in gene expression found with the microarrays.

VEGF mRNA = VEGF mRNA in MOLT-4 cells (Rnase protection); assay type: cell-based, human
cardiac H9 c2 (2-1) = test: CellTiter96 (MTS) in vitro cytotoxicity assay; assay type: cell-based
Source text: (§4) In fact, the dose limiting toxicity in humans is skeletal muscle atrophy.

kidney (NRK-52E) cells = test: CellTiter96 (MTS) in vitro cytotoxicity assay; assay type: cell-based
Source text: as §4

liver (AML-12) = test: CellTiter96 (MTS) in vitro cytotoxicity assay; assay type: cell-based
Source text: as §4

[1] = system: myelogenous stem cells (FDC-P1); test: CellTiter96 (MTS) in vitro cytotoxicity assay; assay type: cell-based
Source text: as §4

skeletal muscle (L8) = test: CellTiter96 (MTS) in vitro cytotoxicity assay; assay type: cell-based
Source text: as §4

[2] = system: solid tumours and non-Hodgkin lymphoma; test: Phase I, 24 h infusion every 2 weeks: antitumour activity; assay type: in vivo, human
Description: Aplidine is given as a 24 hour infusion every 2 weeks. The starting dose was 200 μg/m^2/d and dose escalation proceed including so far 400, 800, 1600, and 3200 μg/m^2/d. A total of 18 patients (M/F: 7/11, median age 52, OMS 0/1:10/8) have been entered. […] Among evaluable patients, toxicity consisted of mild grade I-II nausea/vomiting, grade I-II asthenia, and cramping occurring during or immediately after the infusion. No neuromuscular toxicity were reported at the evaluated doses. One patient with an advanced lung cancer and documented tumour progression at the dose of 1600 μg/m^2 developed a haemolytic anaemia and thrombocytopenia that was considered unlikely related to the study drug. […] An open 2-compartment model fits appropriately most plasma concentration profiles. […] The accrual is ongoing to determine the dose limiting toxicity and the dose to be recommended in phase II studies.
Aplidine was given to patients with solid tumour/NHL as a 24 hr infusion/q2w to 35 patients (median: age=51/ECOG=1) with solid tumour (32 pts) or NHL (3 pts). 23/35 patients were previously exposed to ≧3 previous lines of chemotherapy. Nine dose levels (200-7000 μg/m^2/w/q2w) and 65 cycles (120 infusions) were given. […] Toxicity consisted of G2-3 asthenia and emesis in 9-2 patients and 12-1 pts, respectively. G3 nausea/vomiting (≧5000 μg/m^2) was efficiently treated then prevented with 4HT3-regimens. […] At the dose of 5000 μg/m^2/w/q2w, 2 patients experienced transient muscle cramps with reversible G3 CPK-MM elevations. Among 9 patients treated at 6000 μg/m^2/w, 3 patients experienced an increase of CPK-MM and aldolase after the 3rd injection of aplidine. CPK elevations were G1-2 and not symptomatic in 2 patients but a G3 CPK elevation with G3 muscular pain and loss of muscle strength (DLT) was reported in 1 pt. This was reversible with no sequel. […] Ultrastructural electron microscopy indicated no morphological mitochondria alteration but a lost of the thick myosin filaments. At 7000 μg/m^2/q2w, 4 patients have been entered. […] Mechanistic hypothesis and preventive strategies against muscle toxicity are under evaluation.

P388 leukaemia = settings: mice; cited from earlier work
B 16 melanoma = settings: mice; cited from earlier work

Substance: aplidine
- activity on human bladder cancer (human bladder cancer): exceedingly high activity
- Activity (% T/C.) (Gastric MRI-H254): 20 % T/C
- Activity (% T/C.) (Prostate PC-3; 24 hr.iv inf.): 31 % T/C
- Activity (% T/C.) (Prostate PC-3; 5 day, iv inf): 33 % T/C
- quantitative change in B-RAF expression (B-RAF; 6 Hours): +2.0 fold
- quantitative change in B-RAF expression (B-RAF; 24 Hours): +2.6 fold
- levels of B-RAF, in words (B-RAF; MOLT-4, 6 hours after recovery in drug-free medium): increase
- half life of VEGF mRNA, in words (VEGF mRNA): does not change the half life of VEGF mRNA
- levels of VEGF mRNA, in words (VEGF mRNA; 20 nM aplidine): strong decrease; also recorded: decrease in the mRNA encoding for VEGF
- LD50 (cardiac H9 c2 (2-1)): 1 µM
- LD50 (kidney (NRK-52E) cells): 0.1 nM
- LD50 (liver (AML-12)): 1 µM
- LD50 [1]: 0.1 µM
- LD50 (skeletal muscle (L8)): 0.1 nM
- response, patient with non-Hodgkin lymphoma ([2]; Example 6): Clinical improvement
- Activity observed in NHL ([2]; Example 14): 1/3
- Activity observed in molecular thyroid ([2]; Example 14): 2/2
- Activity observed in neuroendocrine cancer ([2]; Example 14): 1 pt
- Activity observed in renal ([2]; Example 14): 1/5
- antitumour activity in NHL and renal carcinoma ([2]; Example 18): Antitumour activity has been also noted
- activity against implanted tumour (P388 leukaemia): active
- activity against implanted tumour (B 16 melanoma): active
